Laboratory results reported in the NIST ThermoML archive (doi:10.1016/j.jct.2005.01.015).
± gives the expanded uncertainty stated by the source.

Assay: activity coefficient (dimensionless); of the first substance listed, at infinite dilution; xn = mol fraction of the nth substance listed
Settings: 101 kPa, Liquid, Chromatography, x1 = 0

| Structure (SMILES) | activity coefficient (298.15 K) | activity coefficient (303.15 K) | activity coefficient (308.15 K) |
| --- | --- | --- | --- |
| C#CCCCC [1-hexyne] + CCCCn1cc[n+](C)c1.COCCOCCOS(=O)(=O)[O-] | 4.83 ± 0.22 | 4.74 ± 0.22 | 4.91 ± 0.22 |
| C#CCCCCCC [1-octyne] + CCCCn1cc[n+](C)c1.COCCOCCOS(=O)(=O)[O-] | 11.7 ± 0.5 | 11.4 ± 0.5 | 11.6 ± 0.5 |
| c1ccccc1 [benzene] + CCCCn1cc[n+](C)c1.COCCOCCOS(=O)(=O)[O-] | 2.04 ± 0.09 | 2.02 ± 0.09 | 2.03 ± 0.09 |
| CCCCCCC [heptane] + CCCCn1cc[n+](C)c1.COCCOCCOS(=O)(=O)[O-] | 111 ± 5.2 | 100 ± 4.7 | 94.5 ± 4.4 |
| CO [methanol] + CCCCn1cc[n+](C)c1.COCCOCCOS(=O)(=O)[O-] | 0.345 ± 0.035 | 0.342 ± 0.035 | 0.337 ± 0.035 |
| C=CCCCCCC [oct-1-ene] + CCCCn1cc[n+](C)c1.COCCOCCOS(=O)(=O)[O-] | 74.9 ± 3.5 | 69.9 ± 3.3 | 67.1 ± 3.1 |
| CCCCCCCC [octane] + CCCCn1cc[n+](C)c1.COCCOCCOS(=O)(=O)[O-] | 156 ± 7.3 | 140 ± 6.6 | 130 ± 6.1 |
| CCCCC [pentane] + CCCCn1cc[n+](C)c1.COCCOCCOS(=O)(=O)[O-] | 61.7 ± 2.9 | 57.1 ± 2.7 | 54.9 ± 2.6 |
| ClC(Cl)(Cl)Cl [tetrachloromethane] + CCCCn1cc[n+](C)c1.COCCOCCOS(=O)(=O)[O-] | 2.81 ± 0.13 | 2.85 ± 0.13 | 2.91 ± 0.13 |
| Cc1ccccc1 [toluene] + CCCCn1cc[n+](C)c1.COCCOCCOS(=O)(=O)[O-] | 3.72 ± 0.17 | 3.69 ± 0.17 | 3.66 ± 0.17 |

The next lines start with the values.

| activity coefficient (298.15 K) | activity coefficient (303.15 K) | activity coefficient (308.15 K) | Structure (SMILES) |
| --- | --- | --- | --- |
| 7.37 ± 0.34 | 7.22 ± 0.33 | 7.42 ± 0.34 | C#CCCCCC [1-heptyne] + CCCCn1cc[n+](C)c1.COCCOCCOS(=O)(=O)[O-] |
| 41.8 ± 1.9 | 38.2 ± 1.8 | 36.4 ± 1.7 | C1CCCCCC1 [cycloheptane] + CCCCn1cc[n+](C)c1.COCCOCCOS(=O)(=O)[O-] |
| 34.4 ± 1.6 | 31.5 ± 1.5 | 30.3 ± 1.4 | C1CCCCC1 [cyclohexane] + CCCCn1cc[n+](C)c1.COCCOCCOS(=O)(=O)[O-] |
| 22.7 ± 1.1 | 20.9 ± 1 | 20.5 ± 0.9 | C1CCCC1 [cyclopentane] + CCCCn1cc[n+](C)c1.COCCOCCOS(=O)(=O)[O-] |
| 35.1 ± 1.6 | 32.9 ± 1.5 | 31.4 ± 1.5 | C=CCCCC [hex-1-ene] + CCCCn1cc[n+](C)c1.COCCOCCOS(=O)(=O)[O-] |
| 80.9 ± 3.8 | 74.1 ± 3.5 | 71.1 ± 3.3 | CCCCCC [hexane] + CCCCn1cc[n+](C)c1.COCCOCCOS(=O)(=O)[O-] |
